Assay results reported in US10947271B2, “Antibacterial agents” (THE UNIVERSITY OF QUEENSLAND, priority 2014, dated 2021).

Columns and labels:
Format in all cases: cell-based
Details in all cases: 24 h incubation, visual reading
[1] = tested on: Staphylococcus aureus MRSA ATCC 43300; assay: MIC assay, S. aureus MRSA ATCC 43300
Method: (§1) Antimicrobial activity of compounds was tested against a number of bacterial strains, including Staphylococcus aureus (MRSA ATCC 43300, GISA NRS17, VISA NRS1, MRSA clinical isolate, daptomycin resistant clinical isolate), Streptococcus pneumoniae (MDR ATCC 700677), Enterococcus faecalis (VanA clinical isolate) and Enterococcus faecium (MDR Van A ATCC 51559).
(§2) All compounds were prepared to 160 μg/ml solution in water from a stock solution of 1 mM concentration.
(§3) The compounds, along with standard antibiotics were serially diluted twofold across the wells of 96-well non-binding surface plates (NBS, Corning). Standards ranged from 64 μg/ml to 0.03 μg/ml and compounds from 8 μg/ml to 0.003 μg/ml with final volumes of 50 μL per well. Gram positive bacteria were cultured in Muller Hinton broth (MHB) (Bacto laboratories, Cat. no. 211443) at 37° C. overnight. A sample of each culture was then diluted 40-fold in fresh MHB broth and incubated at 37° C. for 2-3 hrs. The resultant mid-log phase cultures were diluted to the final concentration of 5×10e5 CFU/mL, then 50 μL was added to each well of the compound-containing 96-well plates. All the plates were covered and incubated at 37° C. for 24 h. MICs were the lowest concentration showing no visible growth.
(§4) MICs were determined visually at 24 hr incubation and the MIC was defined as the lowest concentration with which no growth was visible after incubation. Both MIC and MBC were determined by visual inspection only.

[2] = tested on: Streptococcus pneumoniae MDR ATCC 700677; assay: MIC assay, S. pneumoniae MDR ATCC 700677
Method: as §1, §2, §3, §4

[3] = tested on: Enterococcus faecium MDR Van A ATCC 51559; assay: MIC assay, E. faecium MDR Van A ATCC 51559
Method: as §1, §2, §3, §4

Structure (SMILES) | Minimum Inhibitory Concentration (MIC) Staph. aureus ATCC43300 [1] | Minimum Inhibitory Concentration (MIC) S. pneumoniae ATCC 700677 [2] | Minimum Inhibitory Concentration (MIC) E. faecium ATCC51559 [3]
CCCCC=CCCCCCCCC(=O)NC(CCCCN)C(=O)NC(CCCCN)C(=O)NC(CCCCNC(=O)C1NC(=O)C2NC(=O)C(NC(=O)C3NC(=O)C(CC(N)=O)NC(=O)C(NC(=O)C(CC(C)C)NC)C(O)c4ccc(c(Cl)c4)Oc4cc3cc(c4OC3OC(CO)C(O)C(O)C3OC3CC(C)(N)C(O)C(C)O3)Oc3ccc(cc3Cl)C2O)c2ccc(O)c(c2)-c2c(O)cc(O)cc21)C(=O)NC (stereo not drawn) [MCC_000498] | xx (xx = 1-4) | xx (xx = 1-4) | x (x = >4)
CCCCCOc1ccc(C(=O)NCCCCC(NC(=O)c2ccc(OCCCCC)cc2)C(=O)NC(CCCCN)C(=O)NC(CCCCNC(=O)C2NC(=O)C3NC(=O)C(NC(=O)C4NC(=O)C(CC(N)=O)NC(=O)C(NC(=O)C(CC(C)C)NC)C(O)c5ccc(c(Cl)c5)Oc5cc4cc(c5OC4OC(CO)C(O)C(O)C4OC4CC(C)(N)C(O)C(C)O4)Oc4ccc(cc4Cl)C3O)c3ccc(O)c(c3)-c3c(O)cc(O)cc32)C(=O)NC)cc1 (stereo not drawn) [MCC_000502] | xxxxx (xxxxx = <0.01) | xxxxx (xxxxx = <0.01) | xxx (xxx = 0.1-<1)
CNC(=O)C(CCCCNC(=O)C1NC(=O)C2NC(=O)C(NC(=O)C3NC(=O)C(CC(N)=O)NC(=O)C(NC(=O)C(CC(C)C)NC)C(O)c4ccc(c(Cl)c4)Oc4cc3cc(c4OC3OC(CO)C(O)C(O)C3OC3CC(C)(N)C(O)C(C)O3)Oc3ccc(cc3Cl)C2O)c2ccc(O)c(c2)-c2c(O)cc(O)cc21)NC(=O)C(CCCCN)NC(=O)C(CCCCN)NC(=O)CCCOc1ccccc1 (stereo not drawn) [MCC_000505] | xxx (xxx = 0.1-<1) | xx (xx = 1-4) | x (x = >4)
CNC(=O)C(CCCCNC(=O)C1NC(=O)C2NC(=O)C(NC(=O)C3NC(=O)C(CC(N)=O)NC(=O)C(NC(=O)C(CC(C)C)NC)C(O)c4ccc(c(Cl)c4)Oc4cc3cc(c4OC3OC(CO)C(O)C(O)C3OC3CC(C)(N)C(O)C(C)O3)Oc3ccc(cc3Cl)C2O)c2ccc(O)c(c2)-c2c(O)cc(O)cc21)NC(=O)C(CCCCN)NC(=O)C(CCCCNC(=O)CCCOc1ccccc1)NC(=O)CCCOc1ccccc1 (stereo not drawn) [MCC_000506] | xxx (xxx = 0.1-<1) | xxx (xxx = 0.1-<1) | x (x = >4)
CNC(=O)C(CCCCNC(=O)C1NC(=O)C2NC(=O)C(NC(=O)C3NC(=O)C(CC(N)=O)NC(=O)C(NC(=O)C(CC(C)C)NC)C(O)c4ccc(c(Cl)c4)Oc4cc3cc(c4OC3OC(CO)C(O)C(O)C3OC3CC(C)(N)C(O)C(C)O3)Oc3ccc(cc3Cl)C2O)c2ccc(O)c(c2)-c2c(O)cc(O)cc21)NC(=O)C(CCCCN)NC(=O)C(CCCCNC(=O)CCCCCc1ccccc1)NC(=O)CCCCCc1ccccc1 (stereo not drawn) [MCC_000508] | xxxxx (xxxxx = <0.01) | xxxxx (xxxxx = <0.01) | xx (xx = 1-4)
CNC(=O)C(CCCCNC(=O)C1NC(=O)C2NC(=O)C(NC(=O)C3NC(=O)C(CC(N)=O)NC(=O)C(NC(=O)C(CC(C)C)NC)C(O)c4ccc(c(Cl)c4)Oc4cc3cc(c4OC3OC(CO)C(O)C(O)C3OC3CC(C)(N)C(O)C(C)O3)Oc3ccc(cc3Cl)C2O)c2ccc(O)c(c2)-c2c(O)cc(O)cc21)NC(=O)C(CCCCN)NC(=O)C(CCCCN)NC(=O)CCCCCCCCCCCc1ccccc1 (stereo not drawn) [MCC_000511] | xxxxx (xxxxx = <0.01) | xxxxx (xxxxx = <0.01) | xxx (xxx = 0.1-<1)
CNC(=O)C(CCCCNC(=O)C1NC(=O)C2NC(=O)C(NC(=O)C3NC(=O)C(CC(N)=O)NC(=O)C(NC(=O)C(CC(C)C)NC)C(O)c4ccc(c(Cl)c4)Oc4cc3cc(c4OC3OC(CO)C(O)C(O)C3OC3CC(C)(N)C(O)C(C)O3)Oc3ccc(cc3Cl)C2O)c2ccc(O)c(c2)-c2c(O)cc(O)cc21)NC(=O)C(CCCCN)NC(=O)C(CCCCN)NC(=O)Cc1ccc(-c2ccccc2)cc1 (stereo not drawn) [MCC_000512] | xxx (xxx = 0.1-<1) | xxx (xxx = 0.1-<1) | x (x = >4)

The next lines start with the values.

Minimum Inhibitory Concentration (MIC) Staph. aureus ATCC43300 [1] | Minimum Inhibitory Concentration (MIC) S. pneumoniae ATCC 700677 [2] | Minimum Inhibitory Concentration (MIC) E. faecium ATCC51559 [3] | Structure (SMILES)
xxxx (xxxx = 0.01-<0.1) | xxxx (xxxx = 0.01-<0.1) | xx (xx = 1-4) | CCCCCCc1ccc(C(=O)NC(CCCCN)C(=O)NC(CCCCN)C(=O)NC(CCCCNC(=O)C2NC(=O)C3NC(=O)C(NC(=O)C4NC(=O)C(CC(N)=O)NC(=O)C(NC(=O)C(CC(C)C)NC)C(O)c5ccc(c(Cl)c5)Oc5cc4cc(c5OC4OC(CO)C(O)C(O)C4OC4CC(C)(N)C(O)C(C)O4)Oc4ccc(cc4Cl)C3O)c3ccc(O)c(c3)-c3c(O)cc(O)cc32)C(=O)NC)cc1 (stereo not drawn) [MCC_000499]
xxxxx (xxxxx = <0.01) | xxxxx (xxxxx = <0.01) | xx (xx = 1-4) | CCCCCCCc1ccc(C(=O)NC(CCCCN)C(=O)NC(CCCCN)C(=O)NC(CCCCNC(=O)C2NC(=O)C3NC(=O)C(NC(=O)C4NC(=O)C(CC(N)=O)NC(=O)C(NC(=O)C(CC(C)C)NC)C(O)c5ccc(c(Cl)c5)Oc5cc4cc(c5OC4OC(CO)C(O)C(O)C4OC4CC(C)(N)C(O)C(C)O4)Oc4ccc(cc4Cl)C3O)c3ccc(O)c(c3)-c3c(O)cc(O)cc32)C(=O)NC)cc1 (stereo not drawn) [MCC_000500]
xxxx (xxxx = 0.01-<0.1) | xxxxx (xxxxx = <0.01) | x (x = >4) | CCCCCOc1ccc(C(=O)NC(CCCCN)C(=O)NC(CCCCN)C(=O)NC(CCCCNC(=O)C2NC(=O)C3NC(=O)C(NC(=O)C4NC(=O)C(CC(N)=O)NC(=O)C(NC(=O)C(CC(C)C)NC)C(O)c5ccc(c(Cl)c5)Oc5cc4cc(c5OC4OC(CO)C(O)C(O)C4OC4CC(C)(N)C(O)C(C)O4)Oc4ccc(cc4Cl)C3O)c3ccc(O)c(c3)-c3c(O)cc(O)cc32)C(=O)NC)cc1 (stereo not drawn) [MCC_000501]
xxxxx (xxxxx = <0.01) | xxxxx (xxxxx = <0.01) | xx (xx = 1-4) | CCCCCCCOc1ccc(C(=O)NC(CCCCN)C(=O)NC(CCCCN)C(=O)NC(CCCCNC(=O)C2NC(=O)C3NC(=O)C(NC(=O)C4NC(=O)C(CC(N)=O)NC(=O)C(NC(=O)C(CC(C)C)NC)C(O)c5ccc(c(Cl)c5)Oc5cc4cc(c5OC4OC(CO)C(O)C(O)C4OC4CC(C)(N)C(O)C(C)O4)Oc4ccc(cc4Cl)C3O)c3ccc(O)c(c3)-c3c(O)cc(O)cc32)C(=O)NC)cc1 (stereo not drawn) [MCC_000503]
xxxxx (xxxxx = <0.01) | xxxxx (xxxxx = <0.01) | xxx (xxx = 0.1-<1) | CCCCCCCCCOc1ccc(C(=O)NC(CCCCN)C(=O)NC(CCCCN)C(=O)NC(CCCCNC(=O)C2NC(=O)C3NC(=O)C(NC(=O)C4NC(=O)C(CC(N)=O)NC(=O)C(NC(=O)C(CC(C)C)NC)C(O)c5ccc(c(Cl)c5)Oc5cc4cc(c5OC4OC(CO)C(O)C(O)C4OC4CC(C)(N)C(O)C(C)O4)Oc4ccc(cc4Cl)C3O)c3ccc(O)c(c3)-c3c(O)cc(O)cc32)C(=O)NC)cc1 (stereo not drawn) [MCC_000504]
xxx (xxx = 0.1-<1) | xxx (xxx = 0.1-<1) | x (x = >4) | CNC(=O)C(CCCCNC(=O)C1NC(=O)C2NC(=O)C(NC(=O)C3NC(=O)C(CC(N)=O)NC(=O)C(NC(=O)C(CC(C)C)NC)C(O)c4ccc(c(Cl)c4)Oc4cc3cc(c4OC3OC(CO)C(O)C(O)C3OC3CC(C)(N)C(O)C(C)O3)Oc3ccc(cc3Cl)C2O)c2ccc(O)c(c2)-c2c(O)cc(O)cc21)NC(=O)C(CCCCN)NC(=O)C(CCCCN)NC(=O)CCCCCc1ccccc1 (stereo not drawn) [MCC_000507]
xxxx (xxxx = 0.01-<0.1) | xxxxx (xxxxx = <0.01) | xx (xx = 1-4) | CNC(=O)C(CCCCNC(=O)C1NC(=O)C2NC(=O)C(NC(=O)C3NC(=O)C(CC(N)=O)NC(=O)C(NC(=O)C(CC(C)C)NC)C(O)c4ccc(c(Cl)c4)Oc4cc3cc(c4OC3OC(CO)C(O)C(O)C3OC3CC(C)(N)C(O)C(C)O3)Oc3ccc(cc3Cl)C2O)c2ccc(O)c(c2)-c2c(O)cc(O)cc21)NC(=O)C(CCCCN)NC(=O)C(CCCCN)NC(=O)CCCCCCCCc1ccccc1 (stereo not drawn) [MCC_000509]
xxxx (xxxx = 0.01-<0.1) | xxxxxx | xx (xx = 1-4) | CNC(=O)C(CCCCNC(=O)C1NC(=O)C2NC(=O)C(NC(=O)C3NC(=O)C(CC(N)=O)NC(=O)C(NC(=O)C(CC(C)C)NC)C(O)c4ccc(c(Cl)c4)Oc4cc3cc(c4OC3OC(CO)C(O)C(O)C3OC3CC(C)(N)C(O)C(C)O3)Oc3ccc(cc3Cl)C2O)c2ccc(O)c(c2)-c2c(O)cc(O)cc21)NC(=O)C(CCCCN)NC(=O)C(CCCCN)NC(=O)CCCCCCCCCc1ccccc1 (stereo not drawn) [MCC_000510]
